Reference: patent publication EP4202440A1, “PROTEOMICS-BASED STRATIFICATION OF ACUTE MYELOID LEUKAEMIA” (Max-Planck-Gesellschaft zur Förderung der Wissenschaften …, priority 2021, dated 2023)

Assays:
[1] = tested on: primary patient samples; assay: Seahorse analysis: complex I dependency of respiration after rotenone, primary patient samples
[2] = tested on: AML cell lines; assay: Seahorse analysis: complex I dependency of respiration after rotenone, cell lines
[3] = tested on: AML cell lines; assay: Cell viability assay (MTT dye reduction), Mito-high versus Mito-low AML cell lines; type: cell-based, Human; conditions: 96 h incubation, Mito AML cell lines (n=9) vs non-Mito AML cell lines (n=10), Wilcoxon rank sum test, Figure 6D
Excerpt: Human AML cell lines including THP-1 (DSMZ no. ACC16; […]), OCI-AML2 (DSMZ No. ACC 99; FAB M4), OCI-AML3 (DSMZ No. ACC 582; FAB M4), Molm13 (DSMZ No. ACC 554; FAB […]), PL-21 (DSMZ No. ACC 536; FAB M3), HL-60 (DSMZ No. ACC 3; FAB M2), MV4-11 (DSMZ No. ACC 102; FAB M5), SIG-M5 (DSMZ No. ACC 468; FAB […]), ML2 (DSMZ No. ACC 15; FAB M4), NB4 (DSMZ No. ACC 207; FAB M3), KG1 (DSMZ No. ACC 14; FAB not indicated), KG-1a (DSMZ No. ACC 421; FAB not indicated), U-937 (DSMZ No. ACC 5, FAB not indicated), Kasumi-1 (DSMZ No. ACC 220, FAB M2), EOL-1 (DSMZ No. ACC 386, FAB not indicated), OCI-AML5 (DSMZ No. ACC 247, FAB M4), UT-7 (DSMZ No. ACC 137, FAB M7), SET-2 (DSMZ No. ACC 608, FAB no indicated), MonoMac6 (DSMZ No. ACC 124; FAB M5) and HEL (DSMZ No. ACC 11; FAB M6) were obtained from DSMZ (Deutsche Sammlung von Mikroorganismen und Zellkulturen GmbH). THP-1, OCI-AML2, OCI-AML3, Molm13, PL-21, HL-60, MV4-11, SIG-M5, ML2, NB4, KG1, KG-1a, U-937, EOL-1, SET-2, MonoMac6 and HEL were cultured in RPMI 1640 (ThermoFisher, Cat. No. 11875093), supplemented with 20% FBS, 4 mM L-glutamine, 100 IU/ml penicillin and […] streptomycin. Kasumi-1 and OCI-AML5 were cultured in Advanced RPMI (ThermoFisher, Cat. No. 12633012) supplemented with 5% FBS, 4 mM L-glutamine, 100 IU/ml penicillin and […] streptomycin. […] IC50 values were determined using the R package "drc" v3.0-1 (Ritz et al., 2015). […]

C=C(C)[C@H]1Cc2c(ccc3c2O[C@@H]2COc4cc(OC)c(OC)cc4[C@@H]2C3=O)O1 [rotenone, Rotenone]
Complex I dependency (percentage of basal oxygen consumption rate after inhibition with rotenone) [1]: significantly stronger Complex I dependency | Complex I dependency (percentage of basal oxygen consumption rate after inhibition with rotenone) [2]: significantly stronger Complex I dependency

FC(F)(F)c1ccc(/C=C/c2nc(COc3ccc(CCCCn4ccnn4)cc3)co2)cc1 [mubritinib, Mubritinib]
half-maximum inhibitory concentration (IC50): in vitro sensitivity of Mito-high and -low cell lines [3]: significant hypersensitivity
